Assay results reported in patent US10676429B2, “Sulfamoyl-arylamides and the use thereof as medicaments for the treatment of hepatitis B” (priority 2012, dated 2020).

Tests used:
HBV [1] = test: Anti-HBV activity in HepG2.117 cell line (Tet-off, intracellular HBV DNA, realtime PCR); assay type: cell-based
HBV [2] = test: Anti-HBV activity in stable transfected HepG2.2.15 cell line (HBV DNA from secreted virions, realtime PCR); assay type: cell-based
[3] = Cytotoxicity in HepG2 cells, 4 days, Resazurin assay; settings: human, HepG2 cells
[4] = Hepatitis B virus, HepG2.117, 72 h, HepG2.117 cells, 3 days of treatment, intracellular HBV DNA, read-out: HepG2 117 EC50
[5] = Hepatitis B virus, HepG2.2.15, 144 h, HepG2.2.15 cells, 6 days of treatment, secreted virion HBV DNA, read-out: HepG2 2.15 EC50

| SMILES | EC50 (HBV [1]; [4]) | EC50 (HBV [2]; [5]) | CC50 at 4 days [3] | EC50 (HBV [1]; Hepatitis B virus, HepG2.117, 72 h, read-out: HepG2 117 EC50 (μM)) | EC50 (HBV [2]; Hepatitis B virus, HepG2.2.15, 144 h, read-out: HepG2 2.15 EC50 (μM)) | EC50 (HBV [1]; HepG2.117 cells, 3 days of treatment, intracellular HBV DNA, read-out: HepG2 117 EC50) | EC50 (HBV [2]; HepG2.2.15 cells, 6 days of treatment, secreted virion HBV DNA, read-out: HepG2 2.15 EC50) |
| --- | --- | --- | --- | --- | --- | --- | --- |
| Cc1cc(NC(=O)c2cccc(S(=O)(=O)NC(C)CCc3ccccc3)c2)ccc1F (stereo not drawn) [Compound 153] | 0.25 µM | 0.22 µM | > 25000 nM |  |  |  |  |
| COC(=O)N1CCC(NS(=O)(=O)c2cccc(C(=O)Nc3ccc(F)c(C)c3)c2)C1 (stereo not drawn) [Compound 158] | 0.5 µM | 0.15 µM | > 25000 nM |  |  |  |  |
| O=C(Nc1ccc(F)cc1)c1cccc(S(=O)(=O)N2CCCC2)c1 [Compound 36] | 3.03 µM | 4.53 µM | 97000 nM |  |  |  |  |
| Cc1cc(NC(=O)c2cccc(S(=O)(=O)NC(C)c3ccccn3)c2)ccc1F (stereo not drawn) [Compound 163] | 8.53 µM | 0.53 µM | > 25000 nM |  |  |  |  |
| Cc1cc(NC(=O)c2cccc(S(=O)(=O)N[C@H]3CC[C@H](O)CC3)c2)ccc1F [Compound 133] | 1.69 µM | 0.6 µM | > 25000 nM |  |  |  |  |
| Cc1cc(NC(=O)c2cccc(S(=O)(=O)N[C@@H]3CCC[C@@H]3O)c2)ccc1F [Compound 172] | 0.61 µM | 0.26 µM | > 25000 nM |  |  |  |  |
| Cc1cc(NC(=O)c2cccc(S(=O)(=O)NC3CCC(O)C3)c2)ccc1F (stereo not drawn) [Compound 145] | 0.27 µM | 0.22 µM | > 25000 nM |  |  |  |  |
| Cc1cc(NC(=O)c2cccc(S(=O)(=O)NC3CCN(C)C3=O)c2)ccc1F (stereo not drawn) [Compound 181] | 2.04 µM | 2.59 µM | > 25000 nM |  |  |  |  |
| Cc1cc(NC(=O)c2cccc(S(=O)(=O)N[C@H]3CCOC3)c2Cl)ccc1F [Compound 124] | 0.68 µM | 0.33 µM | > 25000 nM |  |  |  |  |
| C=Cc1cc(NC(=O)c2cccc(S(=O)(=O)NC3(C)COC3)c2)ccc1F [Compound 110] | 0.85 µM | 0.66 µM | > 25000 nM |  |  |  |  |
| Cc1cc(NC(=O)c2cccc(S(=O)(=O)NCCC3CC3)c2)ccc1F [Compound 170] | 0.45 µM | 0.26 µM | > 25000 nM |  |  |  |  |
| CC(C)NS(=O)(=O)c1cccc(C(=O)Nc2ccc(F)c(C(F)(F)F)c2)c1 [Compound 74] | 0.53 µM | 0.64 µM | > 25000 nM |  |  |  |  |
| Cc1cc(NC(=O)c2cccc(S(=O)(=O)NCC(F)(F)F)c2)ccc1F [Compound 228] | 1.19 µM | 0.17 µM | > 25000 nM |  |  |  |  |
| Cc1cc(NC(=O)c2ccc(F)c(S(=O)(=O)N[C@H]3CCOC3)c2)ccc1F [Compound 239] | 0.53 µM | 0.48 µM | > 25000 nM |  |  |  |  |
| O=C(Nc1ccc(F)c(F)c1)c1cc(S(=O)(=O)N[C@H]2CCOC2)ccc1F [Compound 101] | 1.51 µM | 0.43 µM | > 25000 nM |  |  |  |  |
| Cc1cc(NC(=O)c2cccc(S(=O)(=O)N[C@H]3CCOC3)c2F)ccc1F [Compound 112] | 0.14 µM | 0.03 µM | > 25000 nM |  |  |  |  |
| CC(C)NS(=O)(=O)c1cccc(C(=O)Nc2ccc(F)c(C3CC3)c2)c1 [Compound 84] | 0.91 µM | 0.32 µM | > 25000 nM |  |  |  |  |
| Cc1cc(NC(=O)c2cccc(S(=O)(=O)NC(C)CN3CCN(C)CC3)c2)ccc1F (stereo not drawn) [Compound 116] | 0.9 µM | 1.94 µM | > 25000 nM |  |  |  |  |
| Cc1cc(NC(=O)c2cccc(S(=O)(=O)NC(C)Cc3ccccc3)c2)ccc1F (stereo not drawn) [Compound 169] |  |  | 14900 nM | 1.41 µM | 0.24 µM |  |  |
| CC(C)NS(=O)(=O)c1cccc(C(=O)Nc2ccc(F)c(F)c2)c1 [Compound 88] | 0.4 µM | 0.21 µM | > 25000 nM |  |  |  |  |
| Cc1cc(NC(=O)c2cccc(S(=O)(=O)NC3(C)COC3)c2)ccc1F [Compound 97] | 0.37 µM | 0.12 µM | > 25000 nM |  |  |  |  |
| Cc1cc(NC(=O)c2cc(Cl)cc(S(=O)(=O)N[C@H]3CCOC3)c2F)ccc1F [Compound 123] | 0.3 µM | 0.15 µM | > 25000 nM |  |  |  |  |
| COc1ccc(NC(=O)c2cccc(S(=O)(=O)N[C@H]3CCOC3)c2)cc1C [Compound 107] | 13.8 µM | 7.82 µM | > 25000 nM |  |  |  |  |
| Cc1cc(NC(=O)c2cccc(S(=O)(=O)N[C@@H]3CCc4ccccc4[C@H]3O)c2)ccc1F [Compound 178] | 2.54 µM | 0.75 µM | > 25000 nM |  |  |  |  |
| O=C(Nc1ccc(F)cc1)c1cc(S(=O)(=O)N2CCC3(CC2)OCCO3)ccc1F [Compound 52] | 2.44 µM | 1.94 µM | > 50000 nM |  |  |  |  |
| Cc1cc(NC(=O)c2ccc(S(=O)(=O)NC3(C)COC3)o2)ccc1F [Compound 231] | 0.32 µM | 0.21 µM | > 25000 nM |  |  |  |  |

| SMILES | EC50 (HBV [1]; [4]) | EC50 (HBV [2]; [5]) | CC50 at 4 days [3] | EC50 (HBV [1]; Hepatitis B virus, HepG2.117, 72 h, read-out: HepG2 117 EC50 (μM)) | EC50 (HBV [2]; Hepatitis B virus, HepG2.2.15, 144 h, read-out: HepG2 2.15 EC50 (μM)) | EC50 (HBV [1]; HepG2.117 cells, 3 days of treatment, intracellular HBV DNA, read-out: HepG2 117 EC50) | EC50 (HBV [2]; HepG2.2.15 cells, 6 days of treatment, secreted virion HBV DNA, read-out: HepG2 2.15 EC50) |
| --- | --- | --- | --- | --- | --- | --- | --- |
| C#Cc1cc(NC(=O)c2cccc(S(=O)(=O)NC(C)C)c2)ccc1F [Compound 91] | 0.77 µM | 0.53 µM | > 25000 nM |  |  |  |  |
| Cc1cc(NC(=O)c2cccc(S(=O)(=O)NC3(C)CC3)c2)ccc1F [Compound 94] | 0.23 µM | 0.15 µM | > 25000 nM |  |  |  |  |
| O=C(Nc1cccc(C(F)(F)F)c1)c1cc(S(=O)(=O)NC2CCCCC2)ccc1F [Compound 7] | 0.56 µM | 0.66 µM | 11400 nM |  |  |  |  |
| Cc1cc(NC(=O)c2cc(S(=O)(=O)N[C@H]3CCOC3)ccc2F)ccc1F [Compound 236] | 1.58 µM | 0.48 µM | > 25000 nM |  |  |  |  |
| CC1(NS(=O)(=O)c2ccc(Cl)c(C(=O)Nc3ccc(F)c(F)c3)c2)COC1 [Compound 234] | 0.34 µM | 0.72 µM | > 25000 nM |  |  |  |  |
| Cc1cc(NC(=O)c2cccc(S(=O)(=O)N[C@H]3CCCC[C@@H]3O)c2)ccc1F [Compound 131] | 1.74 µM | 2.63 µM | > 25000 nM |  |  |  |  |
| Cc1cc(NC(=O)c2cccc(S(=O)(=O)N[C@@H](C)C3CCCCC3)c2)ccc1F [Compound 148] | 3.11 µM | 0.9 µM | 18200 nM |  |  |  |  |
| Cc1ccc(NC(=O)c2cccc(S(=O)(=O)NC3CCCC3)c2)cc1F [Compound 13] | 15.3 µM | 1.99 µM | 13800 nM |  |  |  |  |
| CC[C@@H](C)NS(=O)(=O)c1ccc(F)c(C(=O)Nc2ccc(F)c(F)c2)c1 [Compound 100] | 0.43 µM | 0.13 µM | > 25000 nM |  |  |  |  |
| Cc1cc(NC(=O)c2cccc(S(=O)(=O)NC3CCC(F)(F)C3)c2)ccc1F (stereo not drawn) [Compound 229] | 0.49 µM | 0.2 µM | > 25000 nM |  |  |  |  |
| Cc1cc(NC(=O)c2cccc(S(=O)(=O)NC3Cc4ccccc4C3O)c2)ccc1F (single isomer, unassigned) [Compound 141a, N-(4-fluoro-3-methyl-phenyl)-3-[[(1S,2S)-1-hydroxyindan-2-yl]-sulfamoyl]benzamide or N-(4-fluoro-3-methyl-phenyl)-3-[[(1R,2R)-1-hydroxyindan-2-yl]sulfamoyl]benzamide] |  |  | > 25000 nM |  |  | 1.65 µM | 0.7 µM |
| Cc1cc(NC(=O)c2cccc(S(=O)(=O)N[C@@H]3CCCC[C@H]3O)c2)ccc1F (racemic) [Compound 130] | 1.03 µM | 0.88 µM | > 25000 nM |  |  |  |  |
| COc1ccc(NC(=O)c2cccc(S(=O)(=O)NC(C)C)c2)cc1F [Compound 114] | 3.15 µM | 1.35 µM | > 25000 nM |  |  |  |  |
| CC1(NS(=O)(=O)c2cccc(C(=O)Nc3ccc(F)cc3)c2)CCCC1 [Compound 76] | 2.5 µM | 0.72 µM | > 25000 nM |  |  |  |  |
| Cc1cc(NC(=O)c2cccc(S(=O)(=O)NC3CCS(=O)(=O)C3)c2)ccc1F (stereo not drawn) [Compound 140] | 1.12 µM | 1.1 µM | > 25000 nM |  |  |  |  |
| Cc1cccc(NC(=O)c2cc(S(=O)(=O)N3CCCCC3)c(Cl)cc2Cl)c1 [Compound 17] | 2.65 µM | 0.56 µM | > 100000 nM |  |  |  |  |
| CCC1(NS(=O)(=O)c2cccc(C(=O)Nc3ccc(F)c(C)c3)c2)COC1 [Compound 93] | 0.22 µM | 0.07 µM | > 25000 nM |  |  |  |  |
| CC1(NS(=O)(=O)c2cccc(C(=O)Nc3ccc(F)c(C(F)F)c3)c2F)COC1 [Compound 218] | 0.1 µM | 0.12 µM | > 25000 nM |  |  |  |  |
| Cc1cc(NC(=O)c2cccc(S(=O)(=O)N[C@H](C)[C@@H](O)c3ccccc3)c2)ccc1F [Compound 144] | 0.24 µM | 0.13 µM | > 25000 nM |  |  |  |  |
| Cc1cc(NC(=O)c2cccc(S(=O)(=O)NC(C)C3CCN(C)CC3)c2)ccc1F (stereo not drawn) [Compound 164] | 0.97 µM | 3.71 µM | > 25000 nM |  |  |  |  |
| CC[C@H](C)NS(=O)(=O)c1cccc(C(=O)Nc2ccc(F)cc2)c1 [Compound 71] | 8.63 µM | 0.75 µM | > 25000 nM |  |  |  |  |
| O=C(Nc1ccc(F)c(F)c1)c1c(F)ccc(S(=O)(=O)N[C@H]2CCOC2)c1F [Compound 196] | 0.07 µM | 0.13 µM | > 25000 nM |  |  |  |  |
| Cc1cc(NC(=O)c2cccc(S(=O)(=O)N[C@@H]3CCc4ccccc4[C@@H]3O)c2)ccc1F [Compound 137] | 0.92 µM | 0.66 µM | 23700 nM |  |  |  |  |
| O=C(Nc1cccc(C(F)(F)F)c1)c1cccc(S(=O)(=O)NC2CCCC2)c1 [Compound 81] | 0.81 µM | 0.24 µM | 15300 nM |  |  |  |  |
| Cc1cc(NC(=O)c2cccc(S(=O)(=O)NC3CCC(F)(F)CC3)c2)ccc1F [Compound 149] | 0.73 µM | 0.22 µM | 20800 nM |  |  |  |  |
| O=C(Nc1ccc(Cl)cc1)c1cc(S(=O)(=O)NC2CCCC2)ccc1F [Compound 51] | 9.44 µM | 3.98 µM | 20800 nM |  |  |  |  |
